# Measured values as given in US20250387385A1, “TREATMENT FOR GLOMERULAR DISEASES” (ZYDUS Lifesciences Limited, priority 2022, published 2025).
# Key:
# HIF = settings: animal model of anemia; reference 10; cited from earlier work
# doxorubicin treated mice = test: Doxorubicin-induced glomerulosclerosis in male Balb/c mice; assay type: in vivo; settings: reduction against doxorubicin treated animals, 24 h urine, oral, two weeks, formula (Ia) 15 mg/kg, Fimasartan 15 mg/kg
# Protocol: Male Balb/c mice were treated with doxorubicin (10 mg/kg, IV). After 5 weeks of treatment, mice were randomized based on protein excretion urine into four groups: Doxorubicin, compound of formula (Ia) (15 mg/kg) and combination of compound of formula (Ia) (15 mg/kg) and Fimasartan (15 mg/kg) by oral route. The treatment continued for two weeks. These mice kept in metabolic cage and 24 h urine protein excretion was measured.
# ischemia condition = settings: reference 12, cited from earlier work
# hemoglobin = settings: clinical trials; reference 11; cited from earlier work
# LPS treated mice = test: LPS-induced nephritis in C57 mice; assay type: in vivo; settings: serum 24 h after LPS, oral, formula (Ia) 15 mg/kg, Iptacopan 20 mg/kg twice a day; for Serum creatinine (reduction): reduction against LPS treated mice; for Serum urea (reduction): reduction compared with LPS treated mice
# Protocol: Single dose of lipopolysachharide (LPS)-induced acute nephritis was generated in C57 mice and the effect of compound of formula (Ia) and combination as shown below. Male C57 mice were treated with vehicle/compound of formula (Ia) (15 mg/kg) and combination of compound of formula (Ia) (15 mg/kg) and Iptacopan (20 mg/kg, twice a day) by oral route. These mice were bled after 24 h of LPS treatment and serum was obtained. The creatinine and urea levels were measured in the serum.
# db/db mice = test: Diabetes induced renal dysfunction in db/db mice; assay type: in vivo; settings: one kidney removed, 15 mg/kg for eight weeks; for Urine microalbumin (reduction): reduction against diabetic mice
# Protocol: For inducing diabetes-induced renal dysfunction, one kidney was removed from male db/db mice and they were treated with compound of formula (Ia) and combination for 8 weeks. At the end of treatment, renal dysfunction was estimated. Histological change in renal disease was also accessed with biochemical changes in serum and urine. Male db/db mice were randomized and were treated with compound of formula (Ia) (15 mg/kg) for eight weeks. At the end of treatment serum creatinine, serum urea and urine microalbumin was measured.
# 5/6 nephrectomized rat = test: 5/6 nephrectomy induced renal dysfunction in male SD rats; assay type: in vivo; settings: 5/6 nephrectomized SD rats, 15 mg/kg for four weeks
# Protocol: Male SD rats will be operated for 5/6 nephrectomy to induce the focal segmental glomerulosclerosis. After a week of recovery, animals were treated with compound of formula (Ia). The randomized rats were treated with compound of formula (Ia) (15 mg/kg) for four weeks. At the end of treatment serum creatinine, serum urea and urine microalbumin was measured.
# BSA treated mice = test: Cationic bovine serum albumin (cBSA) induced nephritis in male C57 mice; assay type: in vivo; settings: reduction against BSA treated mice, 24 h urine on 11th day, oral, 10 days, formula (Ia) 15 mg/kg, Iptacopan 20 mg/kg BID
# Protocol: Male C57 mice were treated with bovine serum albumin (BSA) at 2, 4, 6, 8 and 10 mg/kg on day 1, 2, 3, 4, and 5 days by intraperitoneal route, respectively. The BSA at 10 mg/kg was treated for next 5 days. On the same day, mice were treated with either vehicle/compound of formula (Ia) (15 mg/kg) and combination of compound of formula (Ia) (15 mg/kg) and Iptacopan (20 mg/kg, BID) by oral route and continued for 10 days. On 11th day mice kept in metabolic cage and 24 h urine protein excretion was measured.
# [1] = listed as compound of formula (Ia)
# [2] = listed as Compound of formula (Ia)
smiles,measurement,setting,value
"O=C(O)CNC(=O)c1c(O)c2ccccc2n(OCC2CC2)c1=O [Formula (Ia), Desidustat]",HIF stabilisation,HIF,stabilizes HIF
same,erythropoiesis,HIF,induces erythropoiesis
same,Urine total protein (reduction),doxorubicin treated mice,47.8 ± 5.8%
same,Urine total protein (reduction),doxorubicin treated mice; [1],47.8±5.8%
same,IL-1β levels,ischemia condition; ischemia condition,reduced
same,IL-6 levels,ischemia condition; ischemia condition,reduced
same,MDA,ischemia condition; oxidative stress,decreases
same,SOD,ischemia condition; oxidative stress,decreases
same,hemoglobin,hemoglobin,improves hemoglobin
same,Serum creatinine (reduction),LPS treated mice,34.1 ± 5.2%
same,Serum creatinine (reduction),LPS treated mice; [1],34.1±5.2%
same,Serum urea (reduction),LPS treated mice,44.9 ± 5.2%
same,Serum urea (reduction),LPS treated mice; [1],44.9 ± 5.2%
same,Serum creatinine (reduction),db/db mice,28.4 ± 4.4%
same,Serum urea (reduction),db/db mice,25.8 ± 4.8%
same,Serum creatinine (reduction),db/db mice; [2],28.4±4.4%
same,Serum urea (reduction),db/db mice; [2],25.8±4.8%
same,Urine microalbumin (reduction),db/db mice,50.2 ± 3.2%
same,Urine microalbumin (reduction),db/db mice; [2],50.2±3.2%
same,Microalbumin (reduction of urinary excretion),5/6 nephrectomized rat,35.9 ± 12.0%
same,Serum creatinine (reduction),5/6 nephrectomized rat,14.9 ± 3.2%
same,Serum urea (reduction),5/6 nephrectomized rat,15.9 ± 8.8%
same,Microalbumin (reduction of urinary excretion),5/6 nephrectomized rat; [2],35.9±12.0%
same,Serum creatinine (reduction),5/6 nephrectomized rat; [2],14.9±3.2%
same,Serum urea (reduction),5/6 nephrectomized rat; [2],15.9±8.8%
same,Urine total protein (reduction),BSA treated mice,40.1 ± 7.6%
same,Urine total protein (reduction),BSA treated mice; [2],40.1±7.6%
